Laboratory results from patent publication US20200147217A1, “FUCOIDAN-BASED THERAGNOSTIC COMPOSITION” (National Cancer Center, priority 2018, published 2020).

Tests used:
[1] = tested on: HT1080 human fibrosarcoma-transplanted animal model; test: Tumor-targeting fluorescence imaging after intravenous injection; assay type: in vivo, mice
Description: In Example 11, in order to analyze a tumor-targeting effect of a photosensitizer-fucoidan conjugate, an experiment was performed, in which the conjugate is intravenously administered to an experimental animal and a fluorescence image is taken.
Phosphate buffer (negative control), a free photosensitizer (free Ce6), or a photosensitizer-fucoidan conjugate (Ce6-Fucoidan) was injected intravenously, respectively, into an HT1080 human fibrosarcoma-transplanted animal model, and fluorescence images were taken with an IVIS imaging machine at 5 minutes and 24 hours after the injection (λex 660/20 nm, λem 710/40 nm). […] In FIG. 19B, fluorescence image signal values of the tumor tissues are quantified to compare the amount of photosensitizer accumulated in the tumor tissues. […] FIG. 19C illustrates results obtained by allowing mice to be euthanized, obtaining spleen, kidney, liver, and lung tissues, and identifying ex vivo fluorescence images thereof. […] FIG. 19D illustrates results obtained by freezing the obtained tumor tissues to prepare frozen sections, and then identifying, with a confocal microscope, a degree of penetration of the photosensitizer into each tumor tissue.

[2] = tested on: HT1080 subcutaneous xenograft tumor; test: Tumor growth inhibition in HT1080 xenograft model; assay type: in vivo, Nude mice (Balb/c nude); conditions: 5 mg Ce6 equivalent/kg i.v., +PDT 670 nm, 20 J/cm^2
Description: A photodynamic therapeutic effect caused by a photosensitizer-fucoidan conjugate was evaluated in a tumor-transplanted animal model. A tumor model into which HT1080 cancer cells are subcutaneously xenografted was injected intravenously with a free photosensitizer (free Ce6) or Ce6-Fucoidan, and light irradiation (PDT) was performed on the tumor site using a 670 nm laser. To evaluate an antitumor effect, the tumor size was measured daily for 10 days, and differences between the respective groups were analyzed. For the control experimental animals, phosphate buffer containing no photosensitizer was injected intravenously.
HT1080, a human fibrosarcoma cell line, was obtained from the American Type Culture Collection (ATCC, USA). The HT1080 cells were cultured, under conditions of 37° C., 5% carbon dioxide, and standard humidity, in Eagle's Minimum Essential Media (MEM) medium supplemented with 10% fetal bovine serum (FBS) and 1% penicillin/streptomycin. Nude mice (Balb/c nude) were subcutaneously injected with HT1080 cancer cells as much as 5×10^6 cells/100 μL, and after 5 to 7 days, it was checked whether subcutaneous tumors are produced. […] The tumor size was measured until Day 10 to prepare a tumor growth graph, and the tumor size was compared between the respective groups. […]

retention in the body ([1]; intravenous, up to 24 hours, fluorescence imaging): hardly remains in the body at 24 hours
Substance: chlorin e6 [free Ce6]
fluorescence signal caused by the photosensitizer in tumor frozen sections ([1]; confocal microscope, 24 hours after administration): hardly observed
fluorescence image signal in tumor tissues ([1]; intravenous, 24 hours after injection, IVIS): no fluorescence image signal even in tumor tissues
tumor growth inhibitory effect compared with the control [2]: no statistically significant tumor growth inhibitory effect
